Data from patent US20240269298A1, “PHOSPHONYL DERIVATIVE, AND COMPOSITION AND PHARMACEUTICAL APPLICATION THEREOF” (XIZANG HAISCO PHARMACEUTICAL CO., LTD., priority 2021, published 2024).
Where two headings read alike, the source gives them in different places.

How the values were obtained:
[1] = tested on: A431 (EGFR-WT) cells; experiment: Inhibitory activity on proliferation of A431 (EGFR-WT) cells (CTG, 72 h); format: cell-based; details: Homo sapiens, A-431
Method: NCI-H1975 (EGFR-L858R-T790M) and A431 (EGFR-WT) cells were purchased from ATCC and cultured in an incubator at 37° C. with 5% CO2, and the culture mediums were RPMI1640+10% FBS and DMEM+10% FBS, respectively. On the first day, NCI-H1975 (EGFR-L858R-T790M) and A431 (EGFR-WT) cells in the logarithmic phase were collected, and viable cells were counted using an automatic cell analyzer (countstar). The cell suspensions were adjusted with the culture mediums and plated on a 96-well cell culture plate at 1000 cells/well for NCI-H1975 (EGFR-L858R-T790M) cells and at 3000 cells/well for A431 cells. The next day, the culture mediums were aspirated, and 90 μL of fresh culture mediums and 10 μL of the compounds at different concentrations were added to each well, wherein the final concentration of DMSO in each well was 0.1%. The plate was cultured in the incubator at 37° C. with 5% CO2 for 72 hours. After 72 hours of drug treatment, 50 μL of CTG solution (promega, G7572), which was already pre-melted and equilibrated to room temperature, was added to each well, and the mixtures were uniformly mixed for 2 min using a microplate shaker. The plate was placed at room temperature for 10 min, and then […] signal values were measured using a microplate reader (PHERAstar FSX).
Surviving cells % was calculated based on Vsample/Vvehicle control×100%, wherein Vsample was the readout of the drug-treated group, and Vvehicle control was the average value of the vehicle control group. Using the origin 9.2 software and nonlinear regression model, S-shaped dose-survival curves were plotted, and IC50 values were calculated.

[2] = tested on: NCI-H1975 (EGFR-L858R-T790M) cells; experiment: Inhibitory activity on proliferation of NCI-H1975 (EGFR-L858R-T790M) cells (CTG, 72 h); format: cell-based; details: Homo sapiens
Procedure, shortened: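 IC50 values come from S-shaped dose-survival fits of CTG signal expressed as % of vehicle. Compound exposure lasted 72 h at 37 °C with 0.1% DMSO; seeding was 3000 A431 cells/well in DMEM+10% FBS and 1000 NCI-H1975 cells/well in RPMI1640+10% FBS.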

[3] = read-out: IC50 (value in brackets)

| IC50 [1] [nM] | IC50 ([2]; read-out: IC50 (class symbol)) [nM] | IC50 [2, 3] [nM] | SMILES |
| --- | --- | --- | --- |
| ≥ 10000 | < 100 | 90 | COc1cc(N2CCC3(CCC(N4CCN(c5ccc6c(c5)C(=O)N(C5CCC(=O)NC5=O)C6=O)CC4)CC3)CC2)c(-c2cnn(C)c2)cc1Nc1ncc(Br)c(Nc2ccc(-c3ccccc3)cc2P(C)(C)=O)n1 (stereo not drawn) [Compound 82, 5-(4-(3-(4-((5-bromo-4-((3-(dimethylphosphoryl)-[1,1′-biphenyl]-4-yl)amino)pyrimidin-2-yl)amino)-5-methoxy-2-(1-methyl-1H-pyrazol-4-yl)phenyl)-3-azaspiro[5.5]undecan-9-yl)piperazin-1-yl)-2-(2,6-dioxopiperidin-3-yl)isoindoline-1,3-dione] |
| ≥ 10000 | 100 to 500 | 126 | COc1cc(N2CCC3(CC2)CC(N2CCN(c4ccc5c(c4)C(=O)N(C4CCC(=O)NC4=O)C5=O)CC2)C3)c(-c2cnn(C)c2)cc1Nc1ncc(Br)c(Nc2ccc(-c3ccccc3)cc2P(C)(C)=O)n1 (stereo not drawn) [Compound 83, 5-(4-(7-(4-((5-bromo-4-((3-(dimethylphosphoryl)-[1,1′-biphenyl]-4-yl)amino)pyrimidin-2-yl)amino)-5-methoxy-2-(1-methyl-1H-pyrazol-4-yl)phenyl)-7-azaspiro[3.5]nonan-2-yl)piperazin-1-yl)-2-(2,6-dioxopiperidin-3-yl)isoindoline-1,3-dione] |
| ≥ 10000 | < 100 | 77 | COc1cc(N2CCN(C3CCC4(CC3)CCN(c3ccc5c(c3)C(=O)N(C3CCC(=O)NC3=O)C5=O)CC4)CC2)c(-c2cnn(C)c2)cc1Nc1ncc(Br)c(Nc2ccc(-c3ccccc3)cc2P(C)(C)=O)n1 (stereo not drawn) [Compound 85, 5-(9-(4-(4-((5-bromo-4-((3-(dimethylphosphoryl)-[1,1′-biphenyl]-4-yl)amino)pyrimidin-2-yl)amino)-5-methoxy-2-(1-methyl-1H-pyrazol-4-yl)phenyl)piperazin-1-yl)-3-azaspiro [5.5]undecan-3-yl)-2-(2,6-dioxopiperidin-3-yl)isoindoline-1,3-dione] |
| ≥ 10000 | < 100 | 58 | COc1cc(N2CCC(CN3CCN(c4ccc5c(c4)CN(C4CCC(=O)NC4=O)C5=O)CC3)CC2)c(-c2cnn(C)c2)cc1Nc1ncc(Cl)c(Nc2ccc(-c3ccccc3)cc2P(C)(C)=O)n1 (stereo not drawn) [Compound 105, 3-(5-(4-((1-(4-((5-chloro-4-((3-(dimethylphosphoryl)-[1,1′-biphenyl]-4-yl)amino)pyrimidin-2-yl)amino)-5-methoxy-2-(1-methyl-1H-pyrazol-4-yl)phenyl)piperidin-4-yl)methyl)piperazin-1-yl)-1-oxoisoindolin-2-yl)piperidine-2,6-dione] |
| ≥ 10000 | 100 to 500 | 232 | CCn1cc(-c2cc(Nc3ncc(Cl)c(Nc4ccc(-c5ccccc5)cc4P(C)(C)=O)n3)c(OC)cc2N2CCC(CN3CCN(c4ccc5c(c4)C(=O)N(C4CCC(=O)NC4=O)C5=O)CC3)CC2)cn1 (stereo not drawn) [Compound 110, 5-(4-((1-(4-((5-chloro-4-((3-(dimethylphosphoryl)-[1,1′-biphenyl]-4-yl)amino)pyrimidin-2-yl)amino)-2-(1-ethyl-1H-pyrazol-4-yl)-5-methoxyphenyl)piperidin-4-yl)methyl)piperazin-1-yl)-2-(2,6-dioxopiperidin-3-yl)isoindoline-1,3-dione] |
| ≥ 10000 | 100 to 500 | 209 | CCn1cc(-c2cc(Nc3ncc(Br)c(Nc4ccc(-c5ccccc5)cc4P(C)(C)=O)n3)c(OC)cc2N2CCC(CN3CCN(c4ccc5c(c4)C(=O)N(C4CCC(=O)NC4=O)C5=O)CC3)CC2)cn1 (stereo not drawn) [Compound 111, 5-(4-((1-(4-((5-bromo-4-((3-(dimethylphosphoryl)-[1,1′-biphenyl]-4-yl)amino)pyrimidin-2-yl)amino)-2-(1-ethyl-1H-pyrazol-4-yl)-5-methoxyphenyl)piperidin-4-yl)methyl)piperazin-1-yl)-2-(2,6-dioxopiperidin-3-yl)isoindoline-1,3-dione] |
| ≥ 10000 | < 100 | 40 | COc1cc(N2CCN(C[C@H]3CCN(c4ccc5c(c4)C(=O)N(C4CCC(=O)NC4=O)C5=O)C3)CC2)c(-c2cnn(C)c2)cc1Nc1ncc(Cl)c(Nc2ccc(-c3ccccc3)cc2P(C)(C)=O)n1 (stereo partly drawn) [Compound 118, 5-((R)-3-((4-(4-((5-chloro-4-((3-(dimethylphosphoryl)-[1,1′-biphenyl]-4-yl)amino)pyrimidin-2-yl)amino)-5-methoxy-2-(1-methyl-1H-pyrazol-4-yl)phenyl)piperazin-1-yl)methyl)pyrrolidin-1-yl)-2-(2,6-dioxopiperidin-3-yl)isoindoline-1,3-dione] |
| ≥ 10000 | < 100 | 29 | COc1cc(N2CCN(C[C@H]3CCN(c4ccc5c(c4)C(=O)N(C4CCC(=O)NC4=O)C5=O)C3)CC2)c(-c2cnn(C)c2)cc1Nc1ncc(Cl)c(Nc2ccc(C3CC3)cc2P(C)(C)=O)n1 (stereo partly drawn) [Compound 119, 5-((R)-3-((4-(4-((5-chloro-4-((4-cyclopropyl-2-(dimethylphosphoryl)phenyl)amino)pyrimidin-2-yl)amino)-5-methoxy-2-(1-methyl-1H-pyrazol-4-yl)phenyl)piperazin-1-yl)methyl)pyrrolidin-1-yl)-2-(2,6-dioxopiperidin-3-yl)isoindoline-1,3-dione] |
| ≥ 10000 | < 100 | 16 | COc1cc(N2CCN(C[C@H]3CCN(c4ccc5c(c4)C(=O)N(C4CCC(=O)NC4=O)C5=O)C3)CC2)c(-c2cnn(C)c2)cc1Nc1ncc(Br)c(Nc2ccc(C3CC3)cc2P(C)(C)=O)n1 (stereo partly drawn) [Compound 121, 5-((R)-3-((4-(4-((5-bromo-4-((4-cyclopropyl-2-(dimethylphosphoryl)phenyl)amino)pyrimidin-2-yl)amino)-5-methoxy-2-(1-methyl-1H-pyrazol-4-yl)phenyl)piperazin-1-yl)methyl)pyrrolidin-1-yl)-2-(2,6-dioxopiperidin-3-yl)isoindoline-1,3-dione] |
| ≥ 10000 | < 100 | 23 | COc1cc(N2CCN(CC3CCN(c4ccc5c(c4)C(=O)N(C4CCC(=O)NC4=O)C5=O)CC3)CC2)c(-c2cnn(C)c2)cc1Nc1ncc(Br)c(Nc2ccc(C3CC3)cc2P(C)(C)=O)n1 (stereo not drawn) [Compound 125, 5-(4-((4-(4-((5-bromo-4-((4-cyclopropyl-2-(dimethylphosphoryl)phenyl)amino)pyrimidin-2-yl)amino)-5-methoxy-2-(1-methyl-1H-pyrazol-4-yl)phenyl)piperazin-1-yl)methyl)piperidin-1-yl)-2-(2,6-dioxopiperidin-3-yl)isoindoline-1,3-dione] |
| ≥ 10000 | < 100 | 39 | COc1cc(N2CCN(CC3CCN(c4ccc5c(c4)C(=O)N(C4CCC(=O)NC4=O)C5=O)CC3)CC2)c(-c2cnn(C)c2)cc1Nc1ncc(Cl)c(Nc2ccc(C3CC3)cc2P(C)(C)=O)n1 (stereo not drawn) [Compound 126, 5-(4-((4-(4-((5-chloro-4-((4-cyclopropyl-2-(dimethylphosphoryl)phenyl)amino)pyrimidin-2-yl)amino)-5-methoxy-2-(1-methyl-1H-pyrazol-4-yl)phenyl)piperazin-1-yl)methyl)piperidin-1-yl)-2-(2,6-dioxopiperidin-3-yl)isoindoline-1,3-dione] |
| ≥ 10000 | 100 to 500 | 110 | COc1cc(N2CCC(C(=O)N3CCN(c4ccc5c(c4)C(=O)N(C4CCC(=O)NC4=O)C5=O)CC3)CC2)c(-c2cnn(C)c2)cc1Nc1ncc(Cl)c(Nc2ccc(C3CC3)cc2P(C)(C)=O)n1 (stereo not drawn) [Compound 143, 5-(4-(1-(4-((5-chloro-4-((4-cyclopropyl-2-(dimethylphosphoryl)phenyl)amino)pyrimidin-2-yl)amino)-5-methoxy-2-(1-methyl-1H-pyrazol-4-yl)phenyl)piperidine-4-carbonyl)piperazin-1-yl)-2-(2,6-dioxopiperidin-3-yl)isoindoline-1,3-dione] |
| ≥ 10000 | < 100 | 69 | COc1cc(N2CCC(C(=O)N3CCN(c4ccc5c(c4)C(=O)N(C4CCC(=O)NC4=O)C5=O)CC3)CC2)c(-c2cnn(C)c2)cc1Nc1ncc(Br)c(Nc2ccc(C3CC3)cc2P(C)(C)=O)n1 (stereo not drawn) [Compound 145, 5-(4-(1-(4-((5-bromo-4-((4-cyclopropyl-2-(dimethylphosphoryl)phenyl)amino)pyrimidin-2-yl)amino)-5-methoxy-2-(1-methyl-1H-pyrazol-4-yl)phenyl)piperidine-4-carbonyl)piperazin-1-yl)-2-(2,6-dioxopiperidin-3-yl)isoindoline-1,3-dione] |
